# Where no end group is shown, it is not given here.
# Test system: NOD mice
# Conditions: mouse, in vivo
substance,measurement,value
"insulin B chain 8-20 amino acid peptide (GSHLVEALYLVCG; ends and bridges not checked; UniProt P01308 32-44, looked up, fragment) [islet cell antigen peptide added to the vaccines]",effect of the vaccines on diabetes when the peptide was added,enhanced
